Assay results reported in patent publication US20240139149A1, “THERAPEUTIC USES OF UROLITHIN DERIVATIVES” (Vandria SA, priority 2022, published 2024).

Key:
[1] = system: CD19-CAR T cells / Nalm-6 cells; test: CD19-CAR T cell generation in presence of UA and Nalm-6 killing; type: cell-based, human
[2] = system: human CD8+ T cells; test: Human T cells stimulated with αCD3/αCD28 in presence of UA; type: cell-based
Procedure: Splenic murine T cells were isolated from mice aged 6-20 weeks by negative selection with EasySep mouse T cell isolation kit (Stem cell) according to the manufacturer's instructions. To monitor T cell proliferation, purified T cells were loaded with CellTrace Violet (C34557 ThermoFisher Scientific). T cell activation was initiated using αCD3/CD28 activation beads (11456D; ThermoFisher Scientific) at a ratio of 25 μl dynabeads per 0.5×106 T-cells. Cells were activated with 25-50 μM Urolithin A (Tocris) or DMSO in T cell activation Medium (RPMI (ThermoFisher Scientific) 10% FBS (South America origin), 10 mM Hepes (Sigma), 1×Non-Essential Amino Acid, 1 mM Sodium Pyruvate, 50 µM β-Mercaptoethanol, 100 U/mL penicillin, 100 μg/mL streptomycin and 2 mM Glutamax (ThermoFisher Scientific) for the indicated durations. In selected experiments, cells were stimulated in the presence of inhibitors, namely TCFli (ICG-001; SelleckChem; […]) and PGC-lai (SR-18292, Sigma-Aldrich; […]). For subsequent analysis, activating beads were magnetically removed prior antibody staining. For human T cells, peripheral blood mononuclear cells were purified with a Ficoll-Paque (GE healthcare) gradient. T cells were enriched with EasySep Human T Cell Isolation Kit (StemCell) and activated with dynabead Human T-Activator CD3/CD28 for T Cell Expansion and Activation Kit (11131D; ThermoFisher Scientific), similar to murine T cell stimulation. When the subsequent activation and expansion of CAR T cells was studied, plates were coated with 1 μg/mL anti-human CD3 (αCD3; clone OKT3) and thawed PBMC were cultivated with […] anti-human CD28 (αCD28; 15E8, both Miltenyi Biotec) containing media for three days. (NutriT media (4Cell® Nutri-T media (Sartorius) containing 0.5% penicillin/streptomycin) supplemented with IL-7 (25 U/mL) and IL-15 […] (all Miltenyi Biotec)).
Tumors were minced and digested with Tumor & Tissue Dissociation Reagent (BD Horizon) for 30 min. The remaining organ pieces were filtered through a 70 µm cell strainer. Cells were then washed with PBS 1% BSA and 2 mM EDTA. […]

SMILES: O=c1oc2cc(O)ccc2c2ccc(O)cc12 [UA, Urolithin A]
- CAR gene delivery into CD8+ cells [1]: did not impair
- CD19 CAR-T cell mediated killing of NALM-6 leukemia cells ([1]; 24 h co-culture): did not have a negative impact
- markers of exhaustion (Tim3HiPD-1Hi CD8+CAR+) ([1]; three days after transduction): not affected
- CAR expressing TSCM cells as share of CD8+ cells ([1]; three days post transduction, upon UA exposure): about 60%
- TCF1 expression in human CD8+ T cells ([2]; after 48 hours): increased
- mitochondrial membrane potential of human CD8+ T cells ([2]; after 48 hours): decreased
- frequency of human TSCM cells (CD45RA+CCR7HiCD62L+CD95+CD8+) ([2]; five out of five individual donors, 48 h): increased the frequency
